This assay concerns the target T1, human apelin receptor (APJ, AGTRL-one, APLNR) (Homo sapiens, UniProt P35414).
T1 construct: host or cells: Chinese hamster ovary cells, stably integrated receptor
T1 sequence (P35414 1-380): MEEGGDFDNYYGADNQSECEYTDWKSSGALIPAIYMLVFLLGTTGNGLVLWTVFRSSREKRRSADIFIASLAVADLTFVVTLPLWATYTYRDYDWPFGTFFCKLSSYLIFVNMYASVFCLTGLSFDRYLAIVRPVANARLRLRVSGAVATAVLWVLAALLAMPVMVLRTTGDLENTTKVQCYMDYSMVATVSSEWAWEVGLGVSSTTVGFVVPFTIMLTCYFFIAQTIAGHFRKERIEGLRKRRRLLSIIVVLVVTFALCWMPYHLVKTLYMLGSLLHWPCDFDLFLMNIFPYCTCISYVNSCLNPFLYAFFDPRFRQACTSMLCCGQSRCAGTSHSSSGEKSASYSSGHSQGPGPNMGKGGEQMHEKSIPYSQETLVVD
The experiment in a line: cell-based cAMP TR-FRET assay of apelin receptor activation. Particulars: CHO cells expressing human APJ, forskolin-stimulated cAMP, 0.5 h incubation, 50% of control (apelin-13, 1 nM) response; read-out: Potency Category (EC50). The protocol: The assays disclosed herein were performed using cell lines from DiscoveX, Inc. Biological activity was determined to the cell—based assay. This assay detects activation of the receptor by reporting on intracellular cyclic adenosine monophosphate (cAMP) level. Chinese hamster ovary cells engineered to express the stably integrated human apelin receptor (APJ, AGTRL—one, APLNR), pleaded into the wells of the microtiter plate. Cells were stimulated with […] to increase intracellular cyclic AMP. Immediately following, compounds were added to the range of final concentrations 0.0-100 μM, in DMSO (not to exceed a final DMSO concentration greater than 1% ν/ν), and allowed to incubate with the cells for 0.5 h. At the end of the incubation, cells were lysed to stop APJ signaling and cAMP was quantified using a commercially available competitive immunoassay kit that applies homogenous time—resolved florescence energy transfer (TR—FRET). The assay is based on the competition between a europium (Eu) chelate—labeled cAMP donor tracer and cellular cAMP for binding sites on a cAMP—specific monoclonal antibody labeled with an acceptor fluorophore. When antibodies are bound to the cAMP tracer light emissions at 320 nm stimulate the energy transfer from the donor to the acceptor, which in turn emits light at 665 nm. In the presence of competitive unlabeled cAMP (derived from the activity of the receptor or forskolin-stimulated production of cAMP), the labelled cAMP tracer is dissociated from the cAMP antibody, resulting in a loss of FRET signal. The amount of light emitted by the FRET is inversely proportional to the cAMP generated by the cell/receptor system. Potency and efficacy at APJ are reported in reference to the canonical APJ receptor agonist apelin—13 when tested at 1 nM. […] Compound efficacy (% response) is reported as a percentage of the maximal apein-13 response at 1 nM (control). Potencies were calculated by fitting a […] logistic curve to concentration response consisting of at least 10 discrete data points spanning effective range of the compounds in the cell-based assay that measures cAMP. […] Category B is 200-500 nM; Category C is 100-200 nM; Category D is 50-100 nM; and Category E is <50 nM.
In general terms: Time-resolved FRET reads energy transfer from a long-lived donor to a nearby acceptor.
A word on the EC50: it is the concentration at which the effect is half-maximal. Turning to `CCS(=O)(=O)c1ccc(C(C(=O)Nc2nc3cc(OC)c(OC)cc3s2)N(C)C)cc1` (stereo not drawn), the EC50 was > 500 nM.
In the case of `COC(=O)c1ccc(OC(C(=O)Nc2nc3cc(OC)c(OC)cc3s2)c2ccc(C#N)cc2)cc1` (stereo not drawn), the EC50 was < 50 nM.
The result for `CCS(=O)(=O)c1ccc(C(Cc2ccccc2)C(=O)Nc2nc3cc(OC)c(OC)cc3s2)cc1` (stereo not drawn) reads > 500 nM.
Take `CCS(=O)(=O)c1ccc(C(OCC2CCOCC2)C(=O)Nc2nc3cc(OC)c(OC)cc3s2)cc1` (stereo not drawn): the EC50 was > 500 nM.
In the case of `CCS(=O)(=O)c1ccc(C(C)C(=O)Nc2nc3cc(OC)c(OC)cc3s2)cc1` (stereo not drawn), the EC50 was > 500 nM.
For `COCCS(=O)(=O)c1ccc(CC(=O)Nc2nc3cc(OC)c(OC)cc3s2)cc1`, the EC50 is > 500 nM.
The result for `CCS(=O)(=O)c1ccc(C(C(=O)Nc2nc3cc(OC)c(OC)cc3s2)C(C)C)cc1` (stereo not drawn) reads 200 to 500 nM; that for `CCS(=O)(=O)c1ccc(C(Oc2ccc(C#N)cc2)C(=O)Nc2nc3ccc(N4CCOCC4)cc3s2)cc1` (stereo not drawn), > 500 nM.
With `CCS(=O)(=O)c1ccc(C(Nc2cccc(OC)c2)C(=O)Nc2nc3cc(OC)c(OC)cc3s2)cc1` (stereo not drawn), the concentration giving a half-maximal response (EC50) was > 500 nM.
On to `CCCCc1ccc(OC(C(=O)Nc2nc3cc(OC)c(OC)cc3s2)c2ccc(S(=O)(=O)CC)cc2)cc1` (stereo not drawn), for which the EC50 is > 500 nM.
Regarding `COc1cc2nc(NC(=O)C(Oc3ccc(C#N)cc3)c3ccc(C(=O)N4CCNCC4)cc3)sc2cc1OC` (stereo not drawn), the EC50 is 200 to 500 nM.
The result for `CCOc1ccc(C(Oc2ccc(C#N)cc2)C(=O)Nc2nc3cc(OC)c(OC)cc3s2)cc1` (stereo not drawn) reads < 50 nM; that for `COc1cc2nc(NC(=O)C(Oc3ccc(OCCN4CCCC4)cc3)c3ccc(C#N)cc3)sc2cc1OC` (stereo not drawn), 50 to 100 nM; that for `CCS(=O)(=O)c1ccc(C(Oc2ccc(C#N)cc2)C(=O)Nc2nc3ccc(F)c(OC)c3s2)cc1` (stereo not drawn), > 500 nM.
Consider `CCS(=O)(=O)c1ccc(C(Oc2ccc(C#N)cc2)C(=O)Nc2nc3cc(OCCF)c(OC)cc3s2)cc1` (stereo not drawn), for which the EC50 is < 50 nM.
`CCS(=O)(=O)c1ccc(C(OC)C(=O)Nc2nc3cc(OC)c(OC)cc3s2)cc1` (stereo not drawn): the EC50 is > 500 nM.
The result for `COc1cc2nc(NC(=O)Cc3ccc(C(=O)O)cc3)sc2cc1OC` reads > 500 nM; that for `CCS(=O)(=O)c1ccc(CC(=O)Nc2nc3cc4c(cc3s2)OCO4)cc1`, > 500 nM.
Regarding `CCN(CC)c1ccc2sc(NC(=O)Cc3ccc(S(=O)(=O)CC)cc3)nc2c1`, the EC50 was > 500 nM.
Consider `CCC(C(=O)Nc1nc2cc(OC)c(OC)cc2s1)c1ccc(S(=O)(=O)CC)cc1` (stereo not drawn), for which the EC50 is > 500 nM.
`CCS(=O)(=O)c1ccc(C(C(=O)Nc2nc3cc(OC)c(OC)cc3s2)N2CCCCC2)cc1` (stereo not drawn): the EC50 was > 500 nM.
With `CCS(=O)(=O)c1ccc(C(Oc2ccc(C#N)cc2Cl)C(=O)Nc2nc3cc(OC)c(OC)cc3s2)cc1` (stereo not drawn), the EC50 is < 50 nM.
Turning to `COc1cc2nc(NC(=O)C(Oc3ccc(-c4nnn[nH]4)cc3)c3ccc(C#N)cc3)sc2cc1OC` (stereo not drawn), the EC50 was > 500 nM.
For `COCCNC(=O)c1ccc(C(Oc2ccc(C#N)cc2)C(=O)Nc2nc3cc(OC)c(OC)cc3o2)cc1` (stereo not drawn), the EC50 lay in the range of 50 to 100 nM.
For the compound `CCS(=O)(=O)c1cccc(CC(=O)Nc2nc3cc(OC)c(OC)cc3s2)c1`, the EC50 was > 500 nM.
Turning to `CCS(=O)(=O)c1ccc(C(Oc2ccc(C#N)cc2)C(=O)Nc2nc3ccc(C)c(OC)c3s2)cc1` (stereo not drawn), the EC50 fell in the range of 50 to 100 nM.
Regarding `COc1cc2nc(NC(=O)C(Oc3ccc(C(=O)NCCN4CCCCC4)cc3)c3ccc(C#N)cc3)sc2cc1OC` (stereo not drawn), the EC50 is < 50 nM.
In the case of `COc1cc2nc(NC(=O)C(Oc3ccc(C#N)cc3)c3cccc(S(=O)(=O)c4ccc(F)cc4)c3)sc2cc1OC` (stereo not drawn), the EC50 was in the range of 200 to 500 nM.
On to `COCCNS(=O)(=O)c1ccc(C(Oc2ccc(C#N)cc2)C(=O)Nc2nc3cc(OC)c(OC)cc3s2)cc1` (stereo not drawn), for which the EC50 is 200 to 500 nM.
The result for `COc1cc2nc(NC(=O)C(Oc3ccc(C#N)cc3)c3ccc(OC(C)C)cc3)sc2cc1OC` (stereo not drawn) reads < 50 nM; that for `CCS(=O)(=O)c1ccc(C(Oc2ccc(C#N)cc2)C(=O)Nc2nc3c(OC)ccc(OC)c3s2)cc1` (stereo not drawn), 50 to 100 nM.
The result for `CCS(=O)(=O)c1ccc(C(Oc2ccc(OC)cc2)C(=O)Nc2nc3c(OC)ccc(OC)c3s2)cc1` (stereo not drawn) reads > 500 nM; that for `CCCOc1ccc(OC(C(=O)Nc2nc3cc(OC)c(OC)cc3s2)c2ccc(S(=O)(=O)CC)cc2)cc1` (stereo not drawn), 200 to 500 nM.
`COc1cc2nc(NC(=O)C(Oc3ccc(C(=O)NCCN(C)C)cc3)c3ccc(C#N)cc3)sc2cc1OC` (stereo not drawn): the EC50 lay within 50 to 100 nM.
With `COc1cc2nc(NC(=O)C(Oc3ccc(C#N)cc3)c3cccc(S(=O)(=O)Cc4ccccc4)c3)sc2cc1OC` (stereo not drawn), the EC50 was < 50 nM.
As for `CCS(=O)(=O)c1ccc([C@H](Oc2ccc(C#N)cc2)C(=O)Nc2nc3cc(OC)c(OC)cc3s2)cc1`, the EC50 was 200 to 500 nM.
On to `CCS(=O)(=O)c1ccc(C(Oc2ccc(C#N)cc2)C(=O)Nc2nc3ccccc3o2)cc1` (stereo not drawn), for which the EC50 was > 500 nM.
Regarding `CCS(=O)(=O)c1ccc(C(OCCCOC)C(=O)Nc2nc3cc(OC)c(OC)cc3s2)cc1` (stereo not drawn), the EC50 was > 500 nM.
Take `COc1cc2nc(NC(=O)C(Oc3ccc(C#N)cc3)c3ccc(C(=O)N(C)C)cc3)oc2cc1OC` (stereo not drawn): the EC50 is < 50 nM.
The result for `CCS(=O)(=O)c1ccc(C(Oc2ccc(C#N)cc2)C(=O)Nc2nc3cnc(OC)cc3s2)cc1` (stereo not drawn) reads > 500 nM.
Regarding `CCS(=O)(=O)c1ccc(C(Oc2ccc(C(=O)N(C)C)cc2)C(=O)Nc2nc3cc(OC)c(OC)cc3s2)cc1` (stereo not drawn), the EC50 is < 50 nM.
The result for `COc1cc2nc(NC(=O)C(Oc3ccc(OCCN4CCOCC4)cc3)c3ccc(C#N)cc3)sc2cc1OC` (stereo not drawn) reads 50 to 100 nM; that for `COC(=O)c1ccc(CC(=O)Nc2nc3cc(OC)c(OC)cc3s2)cc1`, > 500 nM; that for `COc1cc2nc(NC(=O)C(Oc3ccc(C#N)cc3)c3cccc(S(=O)(=O)C(C)C)c3)sc2cc1OC` (stereo not drawn), 200 to 500 nM.
For `CCS(=O)(=O)c1ccc(C(Oc2ccc(N(C)C)cc2)C(=O)Nc2nc3cc(OC)c(OC)cc3s2)cc1` (stereo not drawn), the EC50 lay in the range of 200 to 500 nM.
In the case of `CCS(=O)(=O)c1ccc(CC(=O)Nc2nc3ccc(N4CCN(C)CC4)cc3s2)cc1`, the EC50 is > 500 nM.
Turning to `CCS(=O)(=O)c1ccc(CC(=O)Nc2nc3c(OC)ccc(OC)c3s2)cc1`, the EC50 was > 500 nM.
As to `COc1cc2nc(NC(=O)C(Oc3ccc(C#N)cc3)c3ccc(C(=O)NCCN4CCCCC4)cc3)oc2cc1OC` (stereo not drawn), the EC50 is > 500 nM.
The result for `COC(=O)c1ccc(C(Oc2ccc(C#N)cc2)C(=O)Nc2nc3cc(OC)c(OC)cc3s2)cc1` (stereo not drawn) reads 100 to 200 nM; that for `CCS(=O)(=O)c1ccc(C(CCOC)C(=O)Nc2nc3cc(OC)c(OC)cc3s2)cc1` (stereo not drawn), > 500 nM; that for `COc1cc2nc(NC(=O)C(Oc3ccc(C#N)cc3)c3ccc(F)cc3)sc2cc1OC` (stereo not drawn), 200 to 500 nM.
As to `COc1ccc(OC(C(=O)Nc2nc3cc(OC)c(OC)cc3s2)c2ccccc2S(=O)(=O)c2ccc(OC)cc2)cc1` (stereo not drawn), the EC50 was > 500 nM.
Consider `CCS(=O)(=O)c1ccc(C(Oc2ccc(OC)cc2)C(=O)Nc2nc3cc4c(cc3s2)OCO4)cc1` (stereo not drawn), for which the EC50 was > 500 nM.
The result for `CCS(=O)(=O)c1ccc(C2(C(=O)Nc3nc4cc(OC)c(OC)cc4s3)CC2)cc1` reads > 500 nM; that for `COc1cc2nc(NC(=O)C(Oc3ccc(C#N)cc3)c3ccc(S(=O)(=O)C(C)C)cc3)sc2cc1OC` (stereo not drawn), < 50 nM.
As for `CCS(=O)(=O)c1ccc(C(Oc2ccc(C#N)cc2)C(=O)Nc2cc3cc(OC)c(OC)cc3[nH]2)cc1` (stereo not drawn), the EC50 was > 500 nM.
Take `CCS(=O)(=O)c1ccc(C(Oc2cccc(Cl)c2)C(=O)Nc2nc3cc(OC)c(OC)cc3s2)cc1` (stereo not drawn): the EC50 is > 500 nM.
Regarding `COc1cc2nc(NC(=O)C(Oc3ccc(OCCN4CCCCC4)cc3)c3ccc(C#N)cc3)sc2cc1OC` (stereo not drawn), the EC50 was in the range of 50 to 100 nM.
Consider `CCS(=O)(=O)c1ccc(C(OCc2ccccc2)C(=O)Nc2nc3cc(OC)c(OC)cc3s2)cc1` (stereo not drawn), for which the EC50 is > 500 nM.
Regarding `COc1cc2nc(NC(=O)Cc3cccc(C(=O)O)c3)sc2cc1OC`, the EC50 is > 500 nM.
As to `CCS(=O)(=O)c1ccc(C(Nc2ccc(OC)cc2)C(=O)Nc2nc3cc(OC)c(OC)cc3s2)cc1` (stereo not drawn), the half-maximal effective concentration (EC50) was > 500 nM.
For `CCc1ccc(OC(C(=O)Nc2nc3cc(OC)c(OC)cc3s2)c2ccc(S(=O)(=O)CC)cc2)cc1` (stereo not drawn), the EC50 lay within 200 to 500 nM.
In the case of `CCS(=O)(=O)c1ccc(C(Nc2ccccc2OC)C(=O)Nc2nc3cc(OC)c(OC)cc3s2)cc1` (stereo not drawn), the EC50 was > 500 nM.

Source of the values: US12071414B2, “Apelin receptor agonists and methods of use thereof” (Sanford Burnham Prebys Medical Discovery Institute, priority 2015, dated 2024).
